Assay results taken from patent US8153694B2, “Cyclopropanecarboxylic acid compound” (Takeda Pharmaceutical Company Limited, priority 2005, dated 2012).
Structures can show the parent of a compound that is named as a salt.

Target: T1, human GPR40 (Homo sapiens, UniProt O14842)
T1 construct: expressed in transfected cells; host or cells: CHO cell line stably expressing human GPR40
Assay: Receptor function modulating action (agonist action) against human-derived GPR40: intracellular calcium change by FLIPR in CHO cells stably expressing human GPR40
Type: cell-based
Experimental: Receptor Function Modulating Action (Agonist Action) against Human-Derived GPR40 For determination of agonist activity, CHO cell line that stably expressed human GPR40 was used. […] The cells cultured to nearly confluent were rinsed with PBS (Invitrogen) on the previous day of the assay, peeled off with EDTA ([…], Wako Junyaku) and recovered by centrifugation. The number of the obtained cells was counted, and the cells were diluted such that 3×10^5 cells were contained per 1 mL of the medium, dispensed to a 96 well black clear bottom plate (coaster) by 100 μL per well and cultured overnight in a CO2 incubator. Various test compounds were added to the CHO cells thus prepared, and the changes in the intracellular calcium concentration were measured using FLIPR (Molecular Device). The below-mentioned pre-treatment was applied to measure changes in the intracellular calcium concentration by FLIPR. […] A fluorescence dye solution was prepared by adding 500 μM probenecid dissolved in 1N NaOH to the assay buffer to a final concentration of […], and adding the solution (10 mL) to 1 vial of component A (Molecular Device). One day before the assay, the medium of CHO cells re-plated on a 96 well black clear bottom plate was removed, and the cells were washed with D-PBS(−). […] Then, the fluorescence dye solution was dispensed by 100 μL per well, and the cells were cultured in a CO2 incubator for 1 hr to allow uptake of the fluorescence dye by the cells. During this period, the test compound was diluted to a given concentration with the assay buffer, and dispensed to a polypropylene 96-well plate (sample plate) by 100 μL. The cell plate and the sample plate were simultaneously set on FLIPR. After the above-mentioned pre-treatment, variation in the intracellular calcium concentration after addition of various test compounds (50 μL) was measured by FLIPR.

[1] = agonist activity of each compound at 1 μM, relative to the activity of 10 μM γ-linolenic acid as 100%, CHO cell line stably expressing human GPR40

T1 sequence (O14842 whole entry): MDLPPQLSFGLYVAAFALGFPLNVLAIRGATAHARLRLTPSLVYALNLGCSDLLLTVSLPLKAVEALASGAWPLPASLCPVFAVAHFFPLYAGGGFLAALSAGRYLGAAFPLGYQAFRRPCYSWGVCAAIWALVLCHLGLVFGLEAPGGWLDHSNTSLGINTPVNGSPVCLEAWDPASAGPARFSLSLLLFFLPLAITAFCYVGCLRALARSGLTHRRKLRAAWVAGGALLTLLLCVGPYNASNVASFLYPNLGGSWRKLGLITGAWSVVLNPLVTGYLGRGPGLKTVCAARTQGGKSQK

CCOCCOc1cc(C)c(-c2cccc(COc3ccc(C4CC4C(=O)O)cc3)c2)c(C)c1 (centres unmarked) [Example 2, 2-(4-{[4′-(2-ethoxyethoxy)-2′,6′-dimethylbiphenyl-3-yl]methoxy}phenyl)cyclopropanecarboxylic acid]
Relative activity value [1]: 111%

CCOCCOc1cc(C)c(-c2cccc(COc3ccc(C4CC4C(=O)O)cc3)c2)c(C)c1 (centres unmarked) [Example 3, 2-(4-{[4′-(2-ethoxyethoxy)-2′,6′-dimethylbiphenyl-3-yl]methoxy}phenyl)cyclopropanecarboxylic acid calcium salt]
Relative activity value (agonist activity of each compound at 1 μM, relative to the activity of 10 μM γ-linolenic acid as 100%, CHO cell line stably expressing human GPR40, calcium salt): 103%

Cc1cc(OC2CCS(=O)(=O)CC2)cc(C)c1-c1cccc(COc2ccc(C3CC3C(=O)O)cc2)c1 (centres unmarked) [Example 5, 2-[4-({4′-[(1,1-dioxidotetrahydro-2H-thiopyran-4-yl)oxy]-2′,6′-dimethylbiphenyl-3-yl}methoxy)phenyl]cyclopropanecarboxylic acid]
Relative activity value [1]: 108%

Cc1cc(OCC2(C)COC2)cc(C)c1-c1cccc(COc2ccc(C3CC3C(=O)O)cc2)c1 (centres unmarked) [Example 7, 2-[4-({2′,6′-dimethyl-4′-[(3-methyloxetan-3-yl)methoxy]biphenyl-3-yl}methoxy)phenyl]cyclopropanecarboxylic acid]
Relative activity value [1]: 119%

CC(C)CCN(Cc1ccc(COc2ccc(C3CC3C(=O)O)cc2)cc1)c1nc(-c2ccc(C(F)(F)F)cc2)cs1 (centres unmarked) [Example 9]
Relative activity value [1]: 99%

CCCN(Cc1ccc(COc2ccc(C3CC3C(=O)O)cc2)cc1)c1nc(-c2ccc(C(F)(F)F)cc2)cs1 (centres unmarked) [Example 11, 2-[4-({4-[(propyl{4-[4-(trifluoromethyl)phenyl]-1,3-thiazol^-2-yl}amino)methyl]benzyl}oxy)phenyl]cyclopropanecarboxylic acid]
Relative activity value [1]: 114%

O=C(O)C1CC1c1ccc(OCc2cccc(Oc3ccccc3)c2)cc1 (centres unmarked) [Example 13, 2-{4-[(3-phenoxybenzyl)oxy]phenyl)cyclopropanecarboxylic acid]
Relative activity value [1]: 109%

CCCCC/C=C\C/C=C\C/C=C\CCCCC(=O)O [γ-linolenic acid, reference compound]
Relative activity value (reference: activity of 10 μM γ-linolenic acid (GPR40 agonist) set as 100%, CHO cell line stably expressing human GPR40): 100%
